These are literature values, as cited in patent publication US20020132846A1, “Use of gamma substituted gamma-butyrolactones to increase levels of their corresponding substituted gamma-hydroxybutyrate derivatives in humans” (priority 2001, published 2002).

The subject of one data set is lactonase. As to conditions: oral ingestion, lactonase catalyzed hydrolysis; reference (7).
The conditions of data set [1]: used according to prescribed dosing levels and schedules.

For the compound `CC(O)CCC(=O)O` (stereo not shown) [4-methyl substituted gamma-hydroxybutyrate], the “affinity for the GHB receptor” value in the data set on GHB receptor (compared with gamma-hydroxybutyrate itself) is listed as “greater affinity than gamma-hydroxybutyrate itself”. The “more potent at the receptor than gamma-hydroxybutyrate itself” value with GHB receptor (relative to gamma-hydroxybutyrate, reference (8)) is given as 15%.
Take `O=C1CCCO1` [gamma-butyrolactone]: the “formation of the parent compound gamma-hydroxybutyrate” value with lactonase is “rapidly forms the parent compound”.
As to `O=C(O)CCCO` [gamma-hydroxybutyrate], the “physical or psychological addiction” value in data set [1] was “no reports of physical or psychological addiction”.
